# Measured values taken from patent US20100317647A1 (priority 2009, published 2010).
# Target: human Cat S (Homo sapiens, UniProt P25774)
# Assay: Cathepsin enzyme inhibition assay (fluorogenic peptide substrate cleavage)
# Type: biochemical
# Details: human Cat S 1 nM; substrate Z-Val-Val-Arg-AMC 20 μM; pH 6.5; fluorescence over 20 minutes
# Summary of the method: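 IC50 values derived from fluorescence increase (ex 360 nm, em 465 nm) monitored for 20 minutes after substrate addition. Enzyme held at 1 nM with 20 μM Z-Val-Val-Arg-AMC, in pH 6.5 potassium phosphate buffer containing DTT, EDTA and Triton X-100.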
# Chain of human Cat S (P25774 115-331): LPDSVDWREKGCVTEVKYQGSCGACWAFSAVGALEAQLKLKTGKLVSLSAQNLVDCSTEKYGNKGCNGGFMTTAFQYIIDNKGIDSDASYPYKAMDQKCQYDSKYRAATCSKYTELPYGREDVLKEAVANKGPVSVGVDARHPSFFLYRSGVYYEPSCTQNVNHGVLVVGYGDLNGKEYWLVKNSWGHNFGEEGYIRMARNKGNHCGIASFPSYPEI
row,IC50 [nM],Compound
1,0.16,"Cn1cc(-c2ccc(S(=O)(=O)[C@H]3C[C@@H](OC4CCCC4)[C@H](C(=O)NC4(C#N)CC4)C3)c(C(F)(F)F)c2)cn1 (racemic) [Example 213, (1R,2R,4R) and (1S,2S,4S)-2-Cyclopentyloxy-4-[4-(1-methyl-1H-pyrazol-4-yl)-2-trifluoromethyl-benzenesulfonyl]-cyclopentanecarboxylic acid (1-cyano-cyclopropyl)-amide]"
2,20.2,"N#CCNC(=O)[C@@H]1CC(S(=O)(=O)c2ccccc2Cl)C[C@H]1COc1ccc(O)nn1 (mixture of isomers) [Example 107, (1R,2R,4R)-4-(2-Chloro-benzenesulfonyl)-2-(6-hydroxy-pyridazin-3-yloxymethyl)-cyclopentanecarboxylic acid cyanomethylamide and (1R,2R,4S)-4-(2-Chloro-benzenesulfonyl)-2-(6-hydroxy-pyridazin-3-yloxymethyl)-cyclopentanecarboxylic acid cyanomethylamide]"
3,0.923,"CO[C@@H]1C[C@H](S(=O)(=O)c2ccc(N3CCN(C(C)C)CC3)cc2C(F)(F)F)C[C@H]1C(=O)NC1(C#N)CC1 (racemic) [Example 177, (1R,2R,4R) and (1S,2S,4S)-4-[4-(4-Isopropyl-piperazin-1-yl)-2-trifluoromethyl-benzenesulfonyl]-2-methoxy-cyclopentanecarboxylic acid (1-cyano-cyclopropyl)-amide]"
4,6.1,"N#CC1(NC(=O)[C@@H]2C[C@@H](S(=O)(=O)c3ccc(F)cc3Cl)C[C@H]2C(=O)N2CC(F)(F)C2)CC1 [Example 119, (1R,2R,4R)-4-(2-Chloro-4-fluoro-benzenesulfonyl)-2-(3,3-difluoro-azetidine-1-carbonyl)-cyclopentanecarboxylic acid (1-cyano-cyclopropyl)-amide]"
5,0.6,"CC(C)O[C@@H]1C[C@H](S(=O)(=O)c2ccc(Br)cc2C(F)(F)F)C[C@H]1C(=O)NC1(C#N)CC1 (racemic) [Example 112, (1R,2R,4R) and (1S,2S,4S)-4-(4-Bromo-2-trifluoromethyl-benzenesulfonyl)-2-isopropoxy-cyclopentanecarboxylic acid (1-cyano-cyclopropyl)-amide]"
6,0.2,"CCO[C@@H]1C[C@H](S(=O)(=O)c2ccc(-c3c(C)noc3C)cc2C(F)(F)F)C[C@H]1C(=O)NC1(C#N)CC1 (racemic) [Example 115, (1R,2R,4R) and (1S,2S,4S)-4-[4-(3,5-Dimethyl-isoxazol-4-yl)-2-trifluoromethyl-benzenesulfonyl]-2-ethoxy-cyclopentanecarboxylic acid (1-cyano-cyclopropyl)-amide]"
7,10.5,"N#CC1(NC(=O)[C@@H]2C[C@@H](S(=O)(=O)c3ccc(Cl)cc3Cl)C[C@H]2OCc2ccc(Cl)cc2)CC1 (racemic) [Example 233, (1R,2R,4R) and (1S,2S,4S)-2-(4-Chloro-benzyloxy)-4-(2,4-dichloro-benzenesulfonyl)-cyclopentanecarboxylic acid (1-cyano-cyclopropyl)-amide]"
8,0.84,"C[C@H](Oc1ccc(S(=O)(=O)[C@@H]2C[C@@H](C(=O)NC3(C#N)CC3)[C@H](C(=O)N3CCC(F)(F)C3)C2)c(Cl)c1)C(F)(F)F [Example 190, (1R,2R,4R)-4-[2-Chloro-4-((S)-2,2,2-trifluoro-1-methyl-ethoxy)-benzenesulfonyl]-2-(3,3-difluoro-pyrrolidine-1-carbonyl)-cyclopentanecarboxylic acid (1-cyano-cyclopropyl)-amide]"
9,14.7,"N#CC1(NC(=O)[C@@H]2C[C@@H](S(=O)(=O)c3ccc(F)cc3Cl)C[C@H]2COc2ccc(Cl)nc2)CC1 [Example 162, (1R,2R,4S)-4-(2-Chloro-4-fluoro-benzenesulfonyl)-2-(6-chloro-pyridin-3-yloxymethyl)-cyclopentanecarboxylic acid (1-cyano-cyclopropyl)-amide]"
10,31.5,"CC(C)OC[C@@H]1C[C@H](S(=O)(=O)c2ccc(F)cc2Cl)C[C@H]1C(=O)NC1(C#N)CC1 [Example 156, (1R,2R,4S)-4-(2-Chloro-4-fluoro-benzenesulfonyl)-2-isopropoxymethyl-cyclopentanecarboxylic acid (1-cyano-cyclopropyl)-amide]"
11,0.445,"Cc1ccc(S(=O)(=O)[C@@H]2C[C@@H](C(=O)NC3(C#N)CC3)[C@H](C(=O)N3CCC(F)(F)C3)C2)c(Cl)c1 [Example 200, (1R,2R,4R)-4-(2-Chloro-4-methyl-benzenesulfonyl)-2-(3,3-difluoro-pyrrolidine-1-carbonyl)-cyclopentanecarboxylic acid (1-cyano-cyclopropyl)-amide]"
12,1.2,"N#CC1(NC(=O)C2CC(S(=O)(=O)c3ccc(N4CCC(F)(F)C4)cc3C(F)(F)F)CC2C(=O)N2CC(F)(F)C2)CC1 (stereo not shown) [Example 132, 2-(3,3-Difluoro-azetidine-1-carbonyl)-4-[4-(3,3-difluoro-pyrrolidin-1-yl)-2-trifluoromethyl-benzenesulfonyl]-cyclopentanecarboxylic acid (1-cyano-cyclopropyl)-amide]"
13,6.11,"N#CC1(NC(=O)[C@@H]2C[C@@H](S(=O)(=O)c3ccccc3Cl)C[C@H]2OCc2c(F)cc(Cl)cc2F)CC1 (racemic) [Example 251, (1R,2R,4R) and (1S,2S,4S)-4-(2-Chloro-benzenesulfonyl)-2-(4-chloro-2,6-difluoro-benzyloxy)-cyclopentanecarboxylic acid (1-cyano-cyclopropyl)-amide]"
14,0.3,"N#CC1(NC(=O)[C@@H]2C[C@@H](S(=O)(=O)c3ccc(C4CC4)cc3C(F)(F)F)C[C@H]2C(=O)N2CC(F)(F)C2)CC1 [Example 125, (1R,2R,4R)-4-(4-Cyclopropyl-2-trifluoromethyl-benzenesulfonyl)-2-(3,3-difluoro-azetidine-1-carbonyl)-cyclopentanecarboxylic acid (1-cyano-cyclopropyl)-amide]"
15,0.2,"Cc1cc(Cl)ccc1S(=O)(=O)[C@@H]1C[C@@H](C(=O)NC(C#N)c2ccccc2)[C@H](C(=O)N2CCOCC2)C1 (stereo partly drawn) [Example 31, (1R,2R,4R)-4-(4-Chloro-2-methyl-benzenesulfonyl)-2-(morpholine-4-carbonyl)-cyclopentanecarboxylic acid (cyano-phenyl-methyl)-amide]"
16,0.1,"Cc1cc(Cl)ccc1S(=O)(=O)[C@@H]1C[C@@H](C(=O)NC2(C#N)CCN(C)CC2)[C@H](C(=O)N2CCOCC2)C1 [Example 45, (1R,2R,4R)-4-(4-Chloro-2-methyl-benzenesulfonyl)-2-(morpholine-4-carbonyl)-cyclopentanecarboxylic acid (4-cyano-1-methyl-piperidin-4-yl)-amide formiate]"
17,25.5,"N#CC1(NC(=O)[C@@H]2C[C@@H](S(=O)(=O)c3ccccc3)C[C@H]2C(=O)Nc2ccc(F)cc2)CC1 [Example 42, (1R,2R,4S)-4-Benzenesulfonyl-cyclopentane-1,2-dicarboxylic acid 1-[(1-cyano-cyclopropyl)-amide]2-[(4-fluoro-phenyl)-amide]]"
18,157,"CCN1CCN(c2ccc(S(=O)(=O)[C@H]3CC[C@H](C(=O)NC4(C#N)CC4)C3)c(Cl)c2)CC1 (racemic) [Example 97, (1S,3S) and (1R,3R)-3-[2-chloro-4-(4-ethyl-piperazin-1-yl)-benzenesulfonyl]-cyclopentanecarboxylic acid (1-cyano-cyclopropyl)-amide]"
19,290,"N#CC1(NC(=O)[C@H]2CC[C@H](S(=O)(=O)c3ccc(N4CCOCC4)cc3Cl)C2)CC1 (racemic) [Example 94, (1S,3S) and (1R,3R)-3-(2-Chloro-4-morpholin-4-yl-benzenesulfonyl)-cyclopentanecarboxylic acid (1-cyano-cyclopropyl)-amide]"
20,0.3,"CCO[C@@H]1C[C@H](S(=O)(=O)c2ccc(-c3cnn(C)c3)cc2C(F)(F)F)C[C@H]1C(=O)NC1(C#N)CC1 (racemic) [Example 116, (1R,2R,4R) and (1S,2S,4S)-2-Ethoxy-4-[4-(1-methyl-1H-pyrazol-4-yl)-2-trifluoromethyl-benzenesulfonyl]-cyclopentanecarboxylic acid (1-cyano-cyclopropyl)-amide]"
21,0.6,"CO[C@@H]1C[C@H](S(=O)(=O)c2ccc(-c3cc(C)nn3C)cc2C(F)(F)F)C[C@H]1C(=O)NC1(C#N)CC1 (racemic) [Example 67, (1R,2R,4R) and (1S,2S,4S)-4-[4-(2,5-Dimethyl-2H-pyrazol-3-yl)-2-trifluoromethyl-benzenesulfonyl]-2-methoxy-cyclopentanecarboxylic acid (1-cyano-cyclopropyl)-amide]"
22,0.985,"N#CC1(NC(=O)[C@@H]2C[C@@H](S(=O)(=O)c3cccc(Br)c3)C[C@H]2C(=O)N2CCC(F)(F)C2)CC1 [Example 188, (1R,2R,4R)-4-(3-Bromo-benzenesulfonyl)-2-(3,3-difluoro-pyrrolidine-1-carbonyl)-cyclopentanecarboxylic acid (1-cyano-cyclopropyl)-amide]"
23,0.217,"Cn1cc(-c2ccc(S(=O)(=O)[C@H]3C[C@@H](OC4CCOCC4)[C@H](C(=O)NC4(C#N)CC4)C3)c(C(F)(F)F)c2)cn1 (racemic) [Example 173, (1R,2R,4R) and (1S,2S,4S)-4-[4-(1-Methyl-1H-pyrazol-4-yl)-2-trifluoromethyl-benzenesulfonyl]-2-(tetrahydro-pyran-4-yloxy)-cyclopentanecarboxylic acid (1-cyano-cyclopropyl)-amide]"
24,0.9,"N#CCNC(=O)[C@@H]1C[C@@H](S(=O)(=O)c2ccccc2C(F)(F)F)C[C@H]1C(=O)N1CCOCC1 [Example 37, (1R,2R,4R)-2-(Morpholine-4-carbonyl)-4-(2-trifluoromethyl-benzenesulfonyl)-cyclopentanecarboxylic acid cyanomethyl-amide]"
25,1030,"C[C@H](Oc1ccc(S(=O)(=O)[C@H]2CC[C@H](C(=O)NCC#N)C2)c(Cl)c1)C(F)(F)F (racemic) [Example 80, (1S,3S)-3-[2-Chloro-4-(2,2,2-trifluoro-1-methyl-ethoxy)-benzenesulfonyl]-cyclopentanecarboxylic acid cyanomethyl-amide (epimeric mixture of racemate)]"
